In ChEMBL document CHEMBL1201862, “PubChem BioAssay data set” (2004):
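Method: 48-hour compound exposure of cells in 96-well plates, five concentrations, linear interpolation of endpoints. GI50: concentration for 50% inhibition of growth.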 Activity calls are given as the source filed them. No stated cut-off is given here; in the data, active = GI50 up to about 1.1 µM and inactive = higher.

Legend:
Test in all cases: inhibition of tumour cell growth, NCI panel, 48 h
A498 = tested on: A498
BT-549 = tested on: BT-549
COLO 205 = tested on: COLO 205
HCT-116 = tested on: HCT-116
HOP-92 = tested on: HOP-92
Hs-578T = tested on: Hs-578T
IGROV-1 = tested on: IGROV-1
K562 = tested on: K562
LOX IMVI = tested on: LOX IMVI
NCI/ADR-RES = tested on: NCI/ADR-RES
OVCAR-3 = tested on: OVCAR-3
OVCAR-8 = tested on: OVCAR-8
RPMI-8226 = tested on: RPMI-8226
SF-268 = tested on: SF-268
SNB-75 = tested on: SNB-75
SW-620 = tested on: SW-620
T47D = tested on: T47D
U-251 = tested on: U-251
CCRF-CEM = tested on: CCRF-CEM

Measured: GI50

COc1ccc(-c2cc(-c3ccccc3)c3c(n2)-c2ccccc2NC(=O)C3)cc1
inactive: A498 > 100 µM | BT-549 > 100 µM | COLO 205 > 100 µM | HCT-116 25.5 µM | HOP-92 27 µM | Hs-578T 5.15 µM | IGROV-1 13.8 µM | K562 1.47 µM | LOX IMVI 65.6 µM | NCI/ADR-RES 36.5 µM | OVCAR-3 30.1 µM | OVCAR-8 9.66 µM | RPMI-8226 > 100 µM | SF-268 23.7 µM | SNB-75 1.19 µM | SW-620 > 100 µM | T47D 74 µM | U-251 22.5 µM

Cc1ccc(S(=O)(=O)NNC2(NS(=O)(=O)c3ccc(Cl)cc3)C(Cl)=C(Cl)C(=O)c3ccccc32)cc1 (stereo not given)
inactive: A498 17.8 µM | BT-549 14.9 µM | CCRF-CEM 22.9 µM | COLO 205 18.1 µM | HCT-116 17.9 µM | HOP-92 17.3 µM | Hs-578T 17.2 µM | IGROV-1 14.7 µM | K562 7.93 µM | LOX IMVI 23.5 µM | NCI/ADR-RES 23.1 µM | OVCAR-3 16.4 µM | OVCAR-8 21.6 µM | RPMI-8226 5.4 µM | SF-268 14 µM | SW-620 26 µM | T47D 28.3 µM | U-251 21.8 µM

Cc1cc2c(cc1Cl)Sc1nnc(Nc3ccccc3)n1S2(=O)=O
inactive: A498 12.7 µM | BT-549 7.78 µM | HCT-116 9.64 µM | HOP-92 5.57 µM | Hs-578T 3.15 µM | IGROV-1 10 µM | K562 8.69 µM | LOX IMVI 3.85 µM | NCI/ADR-RES 6.22 µM | OVCAR-3 2.2 µM | OVCAR-8 5.97 µM | RPMI-8226 2.61 µM | SF-268 2.32 µM | SNB-75 5.47 µM | SW-620 7.87 µM | T47D 7.78 µM | U-251 3.75 µM

CC(C)OC1=C(CC2(C)OCCO2)C(=O)C12OCCO2
inactive: A498 > 100 µM | BT-549 > 100 µM | CCRF-CEM > 100 µM | COLO 205 > 100 µM | HCT-116 > 100 µM | HOP-92 > 100 µM | Hs-578T > 100 µM | IGROV-1 > 100 µM | LOX IMVI > 100 µM | NCI/ADR-RES > 100 µM | OVCAR-3 > 100 µM | OVCAR-8 > 100 µM | SF-268 > 100 µM | SNB-75 > 100 µM | SW-620 > 100 µM | T47D > 100 µM | U-251 > 100 µM

O=C1CC(c2ccccc2)NCCCCN2CC(CN1)C(C(O)c1ccccc1)C2=O (stereo not given)
inactive: A498 > 100 µM | BT-549 > 100 µM | CCRF-CEM > 100 µM | COLO 205 > 100 µM | HCT-116 > 100 µM | HOP-92 > 100 µM | Hs-578T > 100 µM | IGROV-1 > 100 µM | LOX IMVI > 100 µM | NCI/ADR-RES > 100 µM | OVCAR-3 > 100 µM | OVCAR-8 > 100 µM | SF-268 > 100 µM | SNB-75 95.5 µM | SW-620 > 100 µM | T47D > 100 µM | U-251 > 100 µM

COc1cc(/C=C2\C(=O)N(c3ccccc3)C(c3ccccc3)S2(=O)=O)cc(OC)c1OC (stereo not given)
inactive: A498 > 100 µM | BT-549 35.6 µM | CCRF-CEM 10.6 µM | COLO 205 23.3 µM | HCT-116 21.1 µM | HOP-92 33 µM | Hs-578T 70.3 µM | K562 27 µM | LOX IMVI 31.4 µM | NCI/ADR-RES 28.4 µM | OVCAR-3 36 µM | OVCAR-8 21.3 µM | RPMI-8226 17.2 µM | SF-268 > 100 µM | SW-620 51.3 µM | T47D 36.1 µM | U-251 28.6 µM

CCOC(=O)c1ccc(/N=C/C=C(\Nc2ccc(C(=O)OCC)cc2)C23CC4CC(CC(C4)C2)C3)cc1
inactive: A498 38.4 µM | BT-549 > 100 µM | COLO 205 45 µM | HCT-116 56.5 µM | HOP-92 15.8 µM | Hs-578T > 100 µM | IGROV-1 > 100 µM | K562 4.05 µM | LOX IMVI 95.3 µM | NCI/ADR-RES > 100 µM | OVCAR-3 > 100 µM | OVCAR-8 44.3 µM | SF-268 > 100 µM | SNB-75 65.6 µM | SW-620 27.5 µM | T47D 18.3 µM | U-251 > 100 µM

NS(=O)(=O)c1nnc(NC(=O)c2ccccc2)s1
inactive: A498 > 100 µM | BT-549 > 100 µM | COLO 205 > 100 µM | HCT-116 > 100 µM | HOP-92 65.3 µM | Hs-578T > 100 µM | K562 > 100 µM | LOX IMVI > 100 µM | NCI/ADR-RES > 100 µM | OVCAR-3 > 100 µM | OVCAR-8 > 100 µM | RPMI-8226 > 100 µM | SF-268 > 100 µM | SW-620 > 100 µM | T47D > 100 µM | U-251 > 100 µM

CC(C)C[C@H](NC(=O)CCc1ccccc1)B(O)O
inactive: A498 3.19 µM | BT-549 17.5 µM | CCRF-CEM 2.33 µM | COLO 205 12.7 µM | HCT-116 5.87 µM | HOP-92 29.4 µM | Hs-578T 5.78 µM | IGROV-1 23.2 µM | K562 17.6 µM | LOX IMVI 4.63 µM | NCI/ADR-RES 22.7 µM | OVCAR-3 3.63 µM | OVCAR-8 19.7 µM | RPMI-8226 2.24 µM | SF-268 10.1 µM | SW-620 4.83 µM | T47D 18.7 µM | U-251 31.4 µM

CCc1n[nH]c(=O)n1CC
inactive: A498 > 100 µM | BT-549 > 100 µM | CCRF-CEM > 100 µM | COLO 205 > 100 µM | HCT-116 > 100 µM | HOP-92 > 100 µM | Hs-578T > 100 µM | IGROV-1 > 100 µM | K562 > 100 µM | LOX IMVI > 100 µM | NCI/ADR-RES > 100 µM | OVCAR-3 > 100 µM | OVCAR-8 > 100 µM | RPMI-8226 > 100 µM | SF-268 > 100 µM | SW-620 > 100 µM | T47D > 100 µM | U-251 > 100 µM

CC1=CC[C@@]2(CO)[C@@H]([C@@H]1C)[C@H]1CC[C@@H]3[C@@]4(C)CC[C@H](O)C(C)(C)[C@@H]4CC[C@@]3(C)[C@]1(C)C[C@@H]2O
inactive: A498 24 µM | BT-549 20.3 µM | CCRF-CEM 41.1 µM | COLO 205 17.3 µM | HCT-116 21.5 µM | HOP-92 16.9 µM | Hs-578T 15.8 µM | IGROV-1 29.3 µM | K562 45.7 µM | LOX IMVI 15.8 µM | NCI/ADR-RES 27.1 µM | OVCAR-3 31.5 µM | OVCAR-8 14.3 µM | SF-268 21 µM | SW-620 35.6 µM | T47D 11.9 µM | U-251 14.4 µM
